From patent US20090105349A1, “ANDROGEN MODULATORS” (WARNER-LAMBERT COMPANY LLC, priority 2004, published 2009)

Key:
[1] = target: T1, hAR (human androgen receptor) (Homo sapiens, UniProt P10275); test: Competitive hAR binding assay with 3H-DHT tracer; details: baculovirus/Sf9 hAR extract, 1 nM 3H-DHT, one hour at 4° C; mean of multiple tests; read-out: AR Binding IC50
T1 construct: made in house; host or cells: baculovirus/Sf9 insect cells (crude extract)
T1 sequence (P10275 1-920): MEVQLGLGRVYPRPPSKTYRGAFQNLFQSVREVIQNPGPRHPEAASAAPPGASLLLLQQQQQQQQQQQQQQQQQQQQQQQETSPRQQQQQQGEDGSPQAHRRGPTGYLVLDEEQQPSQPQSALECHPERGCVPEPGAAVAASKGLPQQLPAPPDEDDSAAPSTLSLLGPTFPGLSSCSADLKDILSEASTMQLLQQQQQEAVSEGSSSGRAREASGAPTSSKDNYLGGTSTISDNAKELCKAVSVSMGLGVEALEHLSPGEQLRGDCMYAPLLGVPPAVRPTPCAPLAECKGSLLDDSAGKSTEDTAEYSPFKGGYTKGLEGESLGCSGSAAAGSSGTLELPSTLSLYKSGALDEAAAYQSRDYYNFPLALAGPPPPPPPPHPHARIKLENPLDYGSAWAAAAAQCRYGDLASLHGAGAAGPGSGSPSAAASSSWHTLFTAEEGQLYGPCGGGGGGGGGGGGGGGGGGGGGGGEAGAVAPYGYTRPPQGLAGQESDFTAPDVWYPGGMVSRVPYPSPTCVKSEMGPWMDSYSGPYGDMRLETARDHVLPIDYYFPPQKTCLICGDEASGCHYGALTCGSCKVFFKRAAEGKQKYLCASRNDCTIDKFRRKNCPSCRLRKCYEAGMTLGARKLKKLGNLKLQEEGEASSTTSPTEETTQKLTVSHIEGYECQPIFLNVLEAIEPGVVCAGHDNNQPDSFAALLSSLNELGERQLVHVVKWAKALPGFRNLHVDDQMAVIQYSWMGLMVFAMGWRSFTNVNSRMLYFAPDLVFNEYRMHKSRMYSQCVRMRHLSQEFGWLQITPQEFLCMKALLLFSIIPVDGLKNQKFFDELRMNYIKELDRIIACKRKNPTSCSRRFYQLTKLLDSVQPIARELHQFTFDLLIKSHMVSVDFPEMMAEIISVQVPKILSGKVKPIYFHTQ

[2] = system: male Syrian hamsters (ear sebaceous glands, sebum); test: Animal model for inhibition of sebum production (hamster ear); type: in vivo, Syrian hamster; details: 3 % w/v, 4 weeks
Protocol: Arch. Derm. […] This model uses male Syrian hamsters, whose ears contain sebaceous glands.
Testing for sebum inhibition was carried out in the following manner. Male Syrian hamsters aged 9 to 10 weeks were introduced into the laboratory environment and acclimated for 2 weeks prior to use in the study. Each group consisted of 5 animals and run in parallel with vehicle and positive controls. Prior to administration, a sufficient quantity each compound was dissolved in 1 mL of the vehicle identified in Table III to achieve the final concentration reported in Table Ill.
Animals were dosed topically twice daily, five days a week, for 4 weeks. Each dose consisted of 25 micro liters of vehicle control or drug. The dose was applied to the ventral surfaces of both the right and left ears. All animals were sacrificed approximately 18-24 hours after the final dose. The right ears were collected from each animal and used for sebum analysis.
The ears were prepped for HPLC analysis in the following manner. One 8 mm distal biopsy punch was taken, just above the anatomical “V” mark in the ear to normalize the sample area. The punch was pulled apart. The ventral biopsy surface (the area where the topical dose was directly applied to the sebaceous glands) was retained for testing and the dorsal surface of the biopsy punch was discarded.
Tissue samples were blown with N2 gas and stored at −80° C. under nitrogen until HPLC analysis. In addition to ear samples, an aliquot of each drug and vehicle (at least 250 ul) was also stored at −80° C. for inclusion in the HPLC analysis.
HPLC analysis was carried out on an extract of the tissue sample. Tissue samples were contacted with 3 ml of solvent (a 4:1 admixture of 2,2,4-trimethylpentane and isopropyl alcohol). The mixture was shaken for 15 minutes and stored overnight at room temperature, protected from light. The next morning 1 milliliter of water was added to the sample and shaken for 15 minutes. The sample was then centrifuged at approximately 1500 rpm for 15 minutes. Two ml of the organic phase (top layer) was transferred to a glass vial, dried at 37° C., under nitrogen, for approximately 1 hour, and then lyophilized for approximately 48 hours. The samples were then removed from the lyophilizer and each vial was reconstituted with 600 μl of solvent A (trimethylpentane/tetrahydrofuran (99:1). The samples were then recapped and vortexed for 5 minutes.
200 μl of each sample was then transferred to a pre-labeled 200 μl HPLC vial with 200 μL glass inserts. The HPLC vials were placed in the autosampler tray for the Agilent 1100 series HPLC unit. The Agilent 1100 HPLC system consisted of a thermostated autosampler, a quarternary pump, a column heater, and an A/D interface module. All components were controlled by Agilent ChemStation software. A Waters Spherisorb S3W 4.6×100 mm analytical column was maintained at 30° C. by the Agilent column heater unit. The HPLC autosampler was programmed to maintain the sample temperature at 20 C throughout the run.
10 uL of each sample was injected in triplicate into the column. Two solvents were used for the solvent gradient. Solvent A was an admixture of trimethylpentane and tetrahydrofuran (99:1). Solvent B was ethylacetate. The gradient utilized is described in the table below: […]
The Sedex 75 Evaporative Light Scattering Detector (ELSD) was operated at 45° C. with a gain of 5, and N2 pressure maintained at 3.1 bar. Analog signal obtained by the instrument was sent to the Agilent A/D interface module where it was converted to a digital output. The conversion was based on a 10000 mAU/volt set point and the data rate was set at 10 Hz (0.03 min). The resulting digital output was then feed into the Agilent ChemStation software for integration of the peak area.

[3] = Vehicle #1 (polyethylene glycol/transcutol/ethanol 20/20/60), topical twice daily, vs vehicle control

In the case of `CSc1ccccc1Oc1ccc(C#N)cc1Cl` [Example 5, 3-Chloro-4-(2-methylsulfanyl-phenoxy)-benzonitrile], the IC50 [1] is reported as 311 nM, the “% CE Reduction” value [2, 3] is reported as 27% and the “% WE Reduction” value [2, 3] is reported as 39%. The “% WE & CE Reduction” value ([2]; Vehicle #1, topical twice daily, sum of WE and CE) was 66%.
